Assay results as given in patent publication US9345682B2, “Inhibition of STAT3 signal transduction for human cancer therapy” (University of South Florida, priority 1999, dated 2016).

Legend:
MDA-MB-468 cells = experiment: Cell growth of MDA-MB-468 breast carcinoma cells; format: cell-based, human
Protocol: FIG. 6: Src and JAK Inhibitors Block Growth and STAT3 Activation in Breast Carcinoma Cells. MDA-MD-468 cells are treated with inhibitors of EGF receptor (PD158780), Src (PD180970), or JAKs (AG490), and effects on cell growth (Panel A) and STAT3 DNA-binding activity (Panel B) are determined.
The involvement of these, and other, tyrosine kinases in STAT3 activation is tested using specific inhibitors of JAK family kinases, and the EGF receptor and Src family kinases.

peritoneal macrophages [1] = experiment: IL-12-mediated nitric oxide production by macrophages treated in vitro; format: cell-based, mice; conditions: in vitro treatment of macrophages, 50 mM AG-490
Protocol: Nitric oxide production. Peritoneal macrophages (2×10^5/0.2 ml/well) from mice with various treatments are incubated 48 hours. Nitrite accumulation in macrophage supernatants were determined using Griess reagent.
In vitro IL-12 activation and AG-490 treatment of macrophages. Peritoneal macrophages (2×10^5/well) are incubated in medium supplemented with either PBS, or rIL-12 (2 ng/ml), or AG-490 ([…]). Forty-eight hours later, the cultures are renewed by addition of fresh medium with either AG-490 or rIL-12 or PBS. Activation of macrophages is determined by nitric oxide production. Macrophage viability is determined by cleavage of tetrazolium salt in an MTT assay.

peritoneal macrophages [2] = experiment: Cytostatic activity of peritoneal macrophages against J558 myeloma cells; design: species or system mice; conditions: daily i.p. in vivo treatment
Protocol: Peritoneal macrophage preparation and cytostatic test. […] The peritoneal macrophage population is enriched by adhesion on plastic plates followed by washing and aspiration of non-adherent cells. The percentage of macrophages among adherent cells is estimated by morphological criteria using Giemsa staining (>95%). Antitumor cytostatic activity of macrophages is determined by inhibition of DNA synthesis of target tumor cells (J558 myeloma cells). Briefly, macrophage-sensitive J558 cells (2×10^4/well) are co-cultured for 48 hours with and without macrophages (2×10^5/well) prepared from individual mice. To estimate DNA synthesis, the cells are pulsed with ^3H-thymidine (^3H-TdR) ([…]) during the last 6 hours of incubation. ^3H-TdR incorporation is determined using a liquid scintillation b-counter (Pharmacia Wallac, Finland). Results are expressed as percentage of inhibition of ^3H-TdR incorporation by J558 cells incubated with macrophages compared to ^3H-TdR incorporation by J558 cells incubated in medium alone.

[3] = design: species or system mice; conditions: mouse, in vivo
Protocol: FIG. 7: AG490 Blocks Tumorigenicity of Breast Carcinoma Cells. Nude mice are engrafted with MDA-MB-468 tumor cells, and then treated with AG490 by mini-pump infusion (42 mpk) and daily intraperitoneal injections (50 mpk).
AG490 is administered by continuous infusion using subcutaneous mini-pumps supplemented with intraperitoneal injections.

U266 cells = experiment: Fas-mediated apoptosis (Annexin V, flow cytometry) in U266 cells; format: cell-based, human
Protocol: For surface detection of the Fas receptor, 10^6 cells are suspended in […] PBS with 2.5 mg/ml mouse IgM (Sigma) and […] UB2 antibody (MBL) or IgG1, isotype control serum (Dako). Following 30 min incubation at room temperature, cells are washed with PBS, and incubated in the dark for 30 min with goat anti-mouse Ig-FITC. Fluorescence is measured on a FACScan flow cytometer and analyzed using CellQuest software (Becton Dickinson). For cell cycle analysis, 10^6 cells are fixed in ice-cold ethanol for a minimum of 2 h, washed with PBS, and stained with 5 mg/ml propidium iodide (PI) and […] at 37° C. for 30 min prior to analysis by flow cytometry. […] Apoptosis is measured by staining with Annexin V-FITC (Clontech) and flow cytometry analysis. Fas-specific death is calculated as (% Annexin V positive cells in the CH-11 treated population)−(% Annexin V positive cells in the IgM control population). Programmed cell death in cells transfected with the bicistronic green fluorescent protein vectors (pIRES-EGFP or pIRES-Stat3b) is analyzed after staining with Annexin V-PE (Pharmingen) by two color flow cytometry analysis. Apoptotic morphology of DAPI-stained nuclei and green/red fluorescence is confirmed by fluorescence microscopy.

MOPC tumors = experiment: MOPC myeloma tumor growth in vivo; design: species or system BALB/c mice
Protocol: Mice and tumor formation in vivo. Six- to eight-week old female BALB/c mice are obtained from the National Cancer Institute (Frederick, Md.). Cohorts of 3-5 mice per group are used for these experiments. Mice are shaved on the right flank and injected subcutaneously (s.c.) with 5×10^5 of either MOPC or MPC11 cells in […] of PBS to induce tumors.
In vivo treatment with AG-490 and IL-12. When tumors reach about 5 […] in diameter, AG-490 treatment of tumors is initiated and continued daily for 7-10 days. For MOPC tumors, injections of 0.85 mg/day of AG-490 are given intratumorally, supplemented with 0.5 mg/day of AG-490 i.p. For MPC11 tumors, the intratumoral treatment is halved while the i.p. dose remains the same. Control mice receive 50% DMSO vehicle alone in the same volume as the AG-490 treatment group. Recombinant IL-12 is given s.c. at either 100 ng or 200 ng every other day. Tumor growth is monitored daily by measuring two perpendicular tumor diameters with a caliper, and tumor volume was calculated according to the formula V=0.52*a*b(a+b)/2 (a=smallest superficial diameter; b=largest superficial diameter).

For `N#C/C(=C\c1ccc(O)c(O)c1)C(=O)NCc1ccccc1` [AG490], which cell growth (MDA-MB-468 cells) is on record?
The cell growth was “inhibition of cell growth”.

What about the “IL-12-mediated nitric oxide production” value (peritoneal macrophages [1]) of the same compound?
The value was “prevents or suppressed”.

What about the “IL-12-induced cytostatic activity of peritoneal macrophages against target tumor cells” value (peritoneal macrophages [2]) of the same compound?
Its value is “does not influence”.

And the toxicity in animals [3]?
Its toxicity in animals is “not detectably toxic”.

What about the Fas-specific apoptosis (U266 cells; AG490 24 hours then CH-11 12 hours, 7 independent experiments) of the same compound?
Its Fas-specific apoptosis is 18-41%.

And the cells undergoing apoptosis (U266 cells; AG490 24 hours then CH-11 additional 12 hours)?
The cells undergoing apoptosis was “up to 90%”.

And the “time to complete regression of all treated tumors” value (MOPC tumors; 5-mm pre-existing MOPC tumors, AG-490 0.85 mg/day intratumorally plus 0.5 mg/day i.p.)?
The value was 3 to 8 days.

What about the “tumor regrowth after regression” value (MOPC tumors; MOPC tumors, AG-490 treated mice) of the same compound?
The value was “tumor regrowth is observed in all of the AG-490 treated mice except for one”.
